Columns and labels:
[1] = molecular target: T1, Carnitine O-palmitoyltransferase 2, mitochondrial (Rattus norvegicus, UniProt P18886); assay: Inhibition of rat CPT2 in rat mitochondria
T1 sequence (P18886 whole entry): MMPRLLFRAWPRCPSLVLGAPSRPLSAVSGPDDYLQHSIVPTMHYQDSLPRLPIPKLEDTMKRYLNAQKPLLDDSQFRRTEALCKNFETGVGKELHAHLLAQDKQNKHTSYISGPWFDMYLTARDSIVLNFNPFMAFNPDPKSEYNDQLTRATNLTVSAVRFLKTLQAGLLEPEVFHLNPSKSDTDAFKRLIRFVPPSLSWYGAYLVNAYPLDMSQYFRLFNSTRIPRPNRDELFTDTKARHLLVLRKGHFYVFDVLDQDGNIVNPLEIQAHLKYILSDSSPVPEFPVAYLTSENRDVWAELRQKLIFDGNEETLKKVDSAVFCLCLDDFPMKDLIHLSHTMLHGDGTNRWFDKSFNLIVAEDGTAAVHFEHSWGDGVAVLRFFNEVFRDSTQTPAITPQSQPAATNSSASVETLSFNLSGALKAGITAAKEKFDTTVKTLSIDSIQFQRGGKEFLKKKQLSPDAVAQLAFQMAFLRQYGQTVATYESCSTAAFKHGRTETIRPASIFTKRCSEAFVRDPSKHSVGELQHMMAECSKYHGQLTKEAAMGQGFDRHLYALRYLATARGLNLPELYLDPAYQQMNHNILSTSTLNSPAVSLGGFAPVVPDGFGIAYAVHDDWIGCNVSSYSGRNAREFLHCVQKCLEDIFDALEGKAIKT

[2] = molecular target: T2, Carnitine O-palmitoyltransferase 1, liver isoform (Rattus norvegicus, UniProt P32198); assay: Inhibition of rat CPT1 in rat mitochondria
T2 sequence (P32198 whole entry): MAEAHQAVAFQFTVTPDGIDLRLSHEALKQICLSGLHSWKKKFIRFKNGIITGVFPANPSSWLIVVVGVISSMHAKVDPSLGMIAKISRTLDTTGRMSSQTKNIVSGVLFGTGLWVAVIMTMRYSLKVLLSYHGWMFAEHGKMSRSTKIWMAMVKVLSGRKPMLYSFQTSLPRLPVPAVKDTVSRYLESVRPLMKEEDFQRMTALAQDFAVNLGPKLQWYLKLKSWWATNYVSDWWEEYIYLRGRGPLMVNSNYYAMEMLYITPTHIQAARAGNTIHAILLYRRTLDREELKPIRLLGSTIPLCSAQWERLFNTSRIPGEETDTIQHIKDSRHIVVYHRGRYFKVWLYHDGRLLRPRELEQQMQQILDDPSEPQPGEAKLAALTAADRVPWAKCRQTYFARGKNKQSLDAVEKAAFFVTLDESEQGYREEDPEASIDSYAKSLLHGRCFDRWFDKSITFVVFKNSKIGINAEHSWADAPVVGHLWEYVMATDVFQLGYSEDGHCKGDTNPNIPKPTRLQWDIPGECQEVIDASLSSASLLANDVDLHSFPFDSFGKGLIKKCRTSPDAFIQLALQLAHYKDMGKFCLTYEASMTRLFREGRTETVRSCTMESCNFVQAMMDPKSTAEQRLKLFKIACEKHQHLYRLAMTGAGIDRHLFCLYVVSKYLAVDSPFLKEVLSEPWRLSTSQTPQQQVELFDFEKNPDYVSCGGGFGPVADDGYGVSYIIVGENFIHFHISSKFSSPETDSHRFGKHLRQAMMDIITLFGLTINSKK

[3] = Inhibition of rat FAO
[4] = Inhibition of human FAO
[5] = molecular target: T3, Carnitine O-palmitoyltransferase 2, mitochondrial (Homo sapiens, UniProt P23786); assay: Inhibition of human CPT2
T3 sequence (P23786 whole entry): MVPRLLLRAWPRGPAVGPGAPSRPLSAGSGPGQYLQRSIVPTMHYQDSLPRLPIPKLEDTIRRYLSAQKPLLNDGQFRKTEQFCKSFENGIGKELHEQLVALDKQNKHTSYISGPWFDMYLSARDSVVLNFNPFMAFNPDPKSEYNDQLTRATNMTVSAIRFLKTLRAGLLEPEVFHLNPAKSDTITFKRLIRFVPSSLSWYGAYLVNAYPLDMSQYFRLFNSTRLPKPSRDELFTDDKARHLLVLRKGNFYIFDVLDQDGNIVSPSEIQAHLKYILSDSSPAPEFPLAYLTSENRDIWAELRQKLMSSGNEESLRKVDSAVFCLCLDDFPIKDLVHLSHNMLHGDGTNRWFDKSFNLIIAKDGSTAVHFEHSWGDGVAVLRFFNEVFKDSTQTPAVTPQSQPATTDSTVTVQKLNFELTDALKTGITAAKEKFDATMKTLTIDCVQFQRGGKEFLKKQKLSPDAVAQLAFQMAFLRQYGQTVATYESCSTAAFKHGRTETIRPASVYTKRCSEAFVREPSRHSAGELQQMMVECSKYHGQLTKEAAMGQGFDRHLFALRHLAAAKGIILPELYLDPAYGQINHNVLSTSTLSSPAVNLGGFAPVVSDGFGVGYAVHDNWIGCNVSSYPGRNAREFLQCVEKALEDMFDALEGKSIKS

[6] = molecular target: Carnitine O-palmitoyltransferase 1, muscle isoform (Rattus norvegicus, UniProt Q63704); assay: Inhibition of […] in rat myocardium; format: tissue-based
[7] = molecular target: T4, Carnitine O-palmitoyltransferase 1, muscle isoform (Homo sapiens, UniProt Q92523); assay: Inhibition of human CPT1B
T4 sequence (Q92523 whole entry): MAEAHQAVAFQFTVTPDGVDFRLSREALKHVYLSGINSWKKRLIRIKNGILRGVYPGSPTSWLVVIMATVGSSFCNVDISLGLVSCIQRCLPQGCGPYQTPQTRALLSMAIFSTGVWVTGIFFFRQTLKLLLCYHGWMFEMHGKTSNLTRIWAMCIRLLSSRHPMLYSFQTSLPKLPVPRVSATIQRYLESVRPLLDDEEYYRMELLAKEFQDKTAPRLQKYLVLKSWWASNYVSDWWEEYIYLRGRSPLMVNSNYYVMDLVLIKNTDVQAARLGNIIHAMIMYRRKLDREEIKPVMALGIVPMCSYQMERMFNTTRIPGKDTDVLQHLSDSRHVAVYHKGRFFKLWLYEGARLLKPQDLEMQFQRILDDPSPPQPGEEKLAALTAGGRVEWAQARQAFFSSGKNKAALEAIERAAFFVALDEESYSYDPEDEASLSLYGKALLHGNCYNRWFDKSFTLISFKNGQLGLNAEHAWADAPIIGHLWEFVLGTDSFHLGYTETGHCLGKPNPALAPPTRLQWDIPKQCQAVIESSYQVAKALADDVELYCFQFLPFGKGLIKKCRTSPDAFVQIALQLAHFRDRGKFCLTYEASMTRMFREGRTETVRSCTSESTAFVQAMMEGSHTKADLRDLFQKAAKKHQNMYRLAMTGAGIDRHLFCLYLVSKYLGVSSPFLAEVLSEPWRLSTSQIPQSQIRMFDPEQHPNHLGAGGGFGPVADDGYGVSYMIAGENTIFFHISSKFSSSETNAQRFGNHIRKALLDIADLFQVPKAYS

[8] = molecular target: T5, Carnitine O-palmitoyltransferase 1, liver isoform (Homo sapiens, UniProt P50416); assay: Inhibition of human CPT1A
T5 sequence (P50416 whole entry): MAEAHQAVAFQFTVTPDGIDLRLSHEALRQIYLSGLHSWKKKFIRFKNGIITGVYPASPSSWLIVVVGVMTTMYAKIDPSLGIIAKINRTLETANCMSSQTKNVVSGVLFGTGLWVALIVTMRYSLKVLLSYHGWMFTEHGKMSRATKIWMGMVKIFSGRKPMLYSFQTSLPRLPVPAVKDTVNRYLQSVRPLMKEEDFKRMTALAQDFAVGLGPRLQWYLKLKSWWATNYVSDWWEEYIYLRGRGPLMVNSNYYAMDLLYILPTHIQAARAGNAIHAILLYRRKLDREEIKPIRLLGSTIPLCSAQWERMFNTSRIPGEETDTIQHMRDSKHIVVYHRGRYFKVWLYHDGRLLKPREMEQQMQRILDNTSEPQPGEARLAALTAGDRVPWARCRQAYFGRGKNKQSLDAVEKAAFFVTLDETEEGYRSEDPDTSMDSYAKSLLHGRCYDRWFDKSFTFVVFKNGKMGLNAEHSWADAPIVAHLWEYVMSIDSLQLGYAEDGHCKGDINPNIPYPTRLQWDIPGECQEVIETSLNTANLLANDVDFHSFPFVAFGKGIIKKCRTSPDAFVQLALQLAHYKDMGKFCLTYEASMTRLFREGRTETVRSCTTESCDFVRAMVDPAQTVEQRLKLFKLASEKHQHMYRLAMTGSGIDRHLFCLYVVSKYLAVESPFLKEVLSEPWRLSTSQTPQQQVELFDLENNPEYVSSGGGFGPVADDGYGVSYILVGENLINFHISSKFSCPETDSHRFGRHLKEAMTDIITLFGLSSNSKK

[9] = molecular target: T4, Carnitine O-palmitoyltransferase 1, muscle isoform; assay: Inhibition of CPT1B in liver mitochondria
[10] = molecular target: T4, Carnitine O-palmitoyltransferase 1, muscle isoform; assay: Inhibition of CPT1B in heart mitochondria
[11] = molecular target: T1, Carnitine O-palmitoyltransferase 2, mitochondrial; assay: Inhibition of rat CPT2
[12] = molecular target: T2, Carnitine O-palmitoyltransferase 1, liver isoform; assay: Inhibition of rat CPT1A
Sus scrofa = assay: Reduction in plasma glucose in 48 hrs fasted pig at 20 mg, iv measured 5 hrs post dose; format: functional; design: scale not given: the % may be the effect or the level left
Rattus norvegicus [13] = assay: Reduction in blood 3-OH-butyrate in Wistar rat at 60 mg/kg, iv over 5.5 hrs (reference value: 1 mM); format: functional
Rattus norvegicus [14] = assay: Reduction in glucose carbon recycling in Wistar rat at 60 mg/kg, iv over 5.5 hrs; format: functional; design: scale not given: the % may be the effect or the level left
Rattus norvegicus [15] = assay: Reduction in whole body glucose utilization in Wistar rat at 60 mg/kg, iv over 5.5 hrs; format: functional; design: scale not given: the % may be the effect or the level left
Rattus norvegicus [16] = assay: Reduction in plasma glucose in Wistar rat at 60 mg/kg, iv over 5.5 hrs; format: functional; design: scale not given: the % may be the effect or the level left

Chain of Carnitine O-palmitoyltransferase 1, muscle isoform (Rattus norvegicus, UniProt Q63704) (Q63704 whole entry, canonical isoform): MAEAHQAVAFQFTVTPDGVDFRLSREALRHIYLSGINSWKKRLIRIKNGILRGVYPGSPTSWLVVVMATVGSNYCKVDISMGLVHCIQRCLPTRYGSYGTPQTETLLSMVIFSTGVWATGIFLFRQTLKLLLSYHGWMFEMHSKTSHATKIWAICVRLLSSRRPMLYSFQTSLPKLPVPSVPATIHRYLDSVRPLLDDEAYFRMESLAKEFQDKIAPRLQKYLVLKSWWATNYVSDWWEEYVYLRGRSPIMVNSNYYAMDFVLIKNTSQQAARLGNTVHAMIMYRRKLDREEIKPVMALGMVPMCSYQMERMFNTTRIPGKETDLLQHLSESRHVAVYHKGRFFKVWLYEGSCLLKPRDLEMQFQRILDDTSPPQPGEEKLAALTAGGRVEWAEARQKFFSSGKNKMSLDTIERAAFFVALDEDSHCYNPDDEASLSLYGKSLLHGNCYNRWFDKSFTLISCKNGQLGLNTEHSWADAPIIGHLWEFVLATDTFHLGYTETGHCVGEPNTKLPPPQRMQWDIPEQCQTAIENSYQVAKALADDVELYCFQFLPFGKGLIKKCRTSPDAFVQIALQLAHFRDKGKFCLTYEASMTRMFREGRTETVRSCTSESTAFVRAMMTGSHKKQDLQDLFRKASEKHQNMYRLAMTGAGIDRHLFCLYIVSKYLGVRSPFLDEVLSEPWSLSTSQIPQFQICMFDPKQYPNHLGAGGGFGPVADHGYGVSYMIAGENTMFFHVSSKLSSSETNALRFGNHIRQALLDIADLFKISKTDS

Compound	IC50 [3]	IC50 [4]	IC50 [5]	IC50 [7]	IC50 [8]	IC50 [11]	further results
COc1cccc2c1C(=O)c1c(O)c3c(c(O)c1C2=O)C[C@@](O)(C(=O)CO)C[C@@H]3O[C@H]1C[C@H](N)[C@H](O)[C@H](C)O1 [DOXORUBICIN]	–	–	–	–	–	–	IC50 [1]: > 100 µM; IC50 [2]: 250 µM
COc1ccc(CN2CCNCC2)c(OC)c1OC [TRIMETAZIDINE]	> 100 µM	20.5 µM	> 100 µM	> 100 µM	> 100 µM	–	IC50 [6]: 1.3 µM
O=C(O)C(=O)c1ccc(O)cc1	> 100 µM	33.3 µM	> 100 µM	60.3 µM	> 100 µM	> 100 µM	IC50 [9]: 510 µM; IC50 [10]: 11 µM
CCCCc1ccc(NC(=O)OCCN2CCCCC2CC(C2CCCCC2)C2CCCCC2)cc1 (stereo not drawn)	–	–	–	–	–	> 10 µM	IC50 [12]: > 10 µM
O=C(O)C1(CCCCCCOc2ccc(Cl)cc2)CO1 (racemic)	–	–	–	–	–	–	Activity (Sus scrofa): 50%; Activity (Rattus norvegicus [13]): 0.03 mM; Activity (Rattus norvegicus [14]): 30%; Activity (Rattus norvegicus [15]): 14%; Activity (Rattus norvegicus [16]): 25%
